# Reference: patent US8828988B2 (Tetraphase Pharmaceuticals, Inc., priority 2009, dated 2014)
# Where two headings read alike, the source gives them in different places.
# Legend:
# [1] = test system: Staphylococcus aureus SA101, ATCC 29213, MSSA; experiment: MIC assay, SA101; type: cell-based
# [2] = test system: Staphylococcus aureus SA100, ATCC 13709, MSSA, Smith strain; experiment: MIC assay, SA100; type: cell-based
# [3] = test system: Staphylococcus aureus SA161, HA-MRSA, tetracycline-resistant, tet(M); experiment: MIC assay, SA161; type: cell-based
# [4] = test system: Staphylococcus aureus SA158, tetracycline-resistant tet(K); experiment: MIC assay, SA158; type: cell-based
# [5] = test system: Enterococcus faecalis EF103, ATCC 29212; experiment: MIC assay, EF103; type: cell-based; conditions: for MIC: Enterococcus faecalis
# [6] = test system: Enterococcus faecalis EF159, tetracycline-resistant, tet(M); experiment: MIC assay, EF159; type: cell-based
# [7] = test system: Streptococcus pneumoniae SP106, ATCC 49619; experiment: MIC assay, SP106; type: cell-based
# [8] = test system: Streptococcus pneumoniae SP160, tetracycline-resistant, tet(M); experiment: MIC assay, SP160; type: cell-based
# [9] = test system: Escherichia coli EC107, ATCC 25922; experiment: MIC assay, EC107; type: cell-based
# [10] = test system: Escherichia coli EC155, tetracycline-resistant, tet(A); experiment: MIC assay, EC155; type: cell-based
# [11] = test system: Acinetobacter baumannii AB110, ATCC 19606; experiment: MIC assay, AB110; type: cell-based
# [12] = test system: Pseudomonas aeruginosa PA111, ATCC 27853; experiment: MIC assay, PA111; type: cell-based
# [13] = test system: Enterobacter cloacae EC108, ATCC 13047; experiment: MIC assay, EC108; type: cell-based
# [14] = test system: Klebsiella pneumoniae KP109, ATCC 13883; experiment: MIC assay, KP109; type: cell-based
# [15] = test system: Klebsiella pneumoniae KP153, tetracycline-resistant, tet(A), MDR, ESBL+; experiment: MIC assay, KP153; type: cell-based
# [16] = test system: E. faecalis clinical isolates; experiment: MIC50, MIC90 and MIC range, panel of clinical isolates (Example 20); type: cell-based; conditions: 24 isolates, in µg/mL
# Description: (§1) The assays were run as follows.
# (§2) Both values, as well as the MIC range (the lowest and highest MIC value observed for a collection of organisms), were determined for the isolates listed in Table 3.
# [17] = test system: S. aureus clinical isolates; experiment: as above; type: cell-based; conditions: MRSA, 30 isolates; in µg/mL
# Description: as §1, §2
# [18] = test system: S. pneumoniae clinical isolates; experiment: as above; type: cell-based; conditions: 19 isolates, in µg/mL
# Description: as §1, §2
# [19] = test system: E. coli DH10B(pBAD-tetK), expressing tet(K); experiment: MIC against recombinant E. coli expressing tet(K); type: cell-based; conditions: for MIC: Escherichia coli
# Excerpt: (§3) Constructs were transformed into E. coli DH10B for expression. Recombinant strains were pre-induced under optimized conditions with L-arabinose prior to use as inocula in CLSI standardized MIC assays.
# [20] = test system: E. coli DH10B(pBAD-tetM), expressing tet(M); experiment: MIC against recombinant E. coli expressing tet(M); type: cell-based
# Excerpt: as §3
# [21] = test system: S. pneumoniae isolates (Eurofins-Medinet, recent clinical isolates); experiment: MIC50 and MIC90 analysis (Example 22)
# Description: (§4) Frozen bacterial strains were thawed and subcultured onto Mueller Hinton Broth (MHB) or other appropriate media (Streptococcus requires blood and Haemophilus requires hemin and NAD). Following incubation overnight, the strains were subcultured onto Mueller Hinton Agar and again incubated overnight. […] Isolated colonies were selected to prepare a starting inoculum equivalent to a 0.5 McFarland standard. […] Antibiotics (stored frozen, thawed and used within 3 hours of thawing) and compounds were further diluted to the desired working concentrations.
# (§5) The assays were run as follows. Fifty μL of MHB was added to wells 2-12 of a 96-well plate. One hundred μL of appropriately diluted antibiotic or compound was added to well 1. Fifty μL of antibiotics or compound was removed from well 1 and added to well 2 and the contents of well 2 mixed by pipetting up and down five times. Fifty μL of the mixture in well 2 was removed and added to well 3 and mixed as above. Serial dilutions were continued in the same manner through well 12. Fifty μL was removed from well 12 so that all contained 50 μL. Fifty μL of the working inoculum was then added to all test wells. A growth control well was prepared by adding 50 μL of working inoculum and 50 μL of MHB to an empty well. The plates were then incubated at 37° C. overnight, removed from the incubator and each well was read on a plate reading mirror. The lowest concentration (MIC) of test compound that inhibited the growth of the bacteria was recorded.
# (§6) MIC, MIC50 and MIC90 values were determined according to CLSI methodology. S. pneumoniae and H. influenzae isolates were obtained from Eurofins-Medinet and are recent clinical isolates. S. aureus strains were collected from various geographical sources.
# [22] = test system: H. influenzae isolates (Eurofins-Medinet, recent clinical isolates); experiment: MIC50 and MIC90 analysis (Example 22)
# Description: as §4, §5, §6
# [23] = test system: E. coli S30 extract system, coupled in vitro transcription/translation, firefly luciferase readout; experiment: In vitro transcription/translation (TnT) assay; type: biochemical
# [24] = ATCC29212, read-out: MIC EF103 29212
# [25] = ATCC49619, read-out: MIC SP106 49619
# [26] = ATCC25922, read-out: MIC EC107 25922
# [27] = ATCC19606, read-out: MIC AB110 19606
# [28] = ATCC27853, read-out: MIC PA111 27853
# [29] = ATCC13047, read-out: MIC EC108 13047
# [30] = ATCC13883, read-out: MIC KP109 13883
structure (smiles),measurement,setting,value
"C[C@H]1c2cccc(O)c2C(=O)C2=C(O)[C@]3(O)C(=O)C(C(N)=O)=C(O)[C@@H](N(C)C)[C@@H]3[C@@H](O)[C@@H]21 [Doxycycline, doxycycline, reference compound]",MIC,"[1]; Table 8, read-out: MIC S. aureus ATCC 29213",0.13 µg/mL
same,MIC,"[1]; Table 9, read-out: MIC S. aureus ATCC 29213",0.5 µg/mL
same,MIC,"[2]; Table 9, read-out: MIC S. aureus ATCC 13709",0.13 µg/mL
same,MIC,"[3]; Table 8, read-out: MIC S. aureus MRSA, tetM",8 µg/mL
same,MIC,"[3]; Table 9, read-out: MIC MRSA (tet)M SA161",8 µg/mL
same,MIC,"[4]; Table 8, read-out: MIC S. aureus tetK",2 µg/mL
same,MIC,"[4]; Table 9, read-out: MIC S. aureus SA158 (tet)K",2 µg/mL
same,MIC,"[5]; ATCC29212, Table 8, read-out: MIC E. faecalis ATCC 29212",4 µg/mL
same,MIC E. faecalis ATCC 29212,[5]; Table 9,4 µg/mL
same,MIC,"[6]; Table 8, read-out: MIC E. faecalis tetM",4 µg/mL
same,MIC,"[6]; Table 9, read-out: MIC E. faecalis EF159 (tet)M",8 µg/mL
same,MIC,"[7]; ATCC49619, Table 8, read-out: MIC S. pneumoniae ATCC 49619",0.06 µg/mL
same,MIC,"[7]; ATCC49619, Table 9, read-out: MIC S. pneum ATCC 49619",0.25 µg/mL
same,MIC,"[8]; Table 8, read-out: MIC S. pneumoniae tetM",4 µg/mL
same,MIC,"[8]; Table 9, read-out: MIC S. pneum SP160 (tet)M",8 µg/mL
same,MIC,"[9]; ATCC25922, Table 8, read-out: MIC E. coli ATCC 25922",1 µg/mL
same,MIC,"[9]; ATCC25922, Table 9, read-out: MIC E. coli ATCC 25922",1 µg/mL
same,MIC,"[10]; Table 8, read-out: MIC E. coli tetA",32 µg/mL
same,MIC,"[10]; Table 9, read-out: MIC E. coli EC155 (tet)A",32 µg/mL
same,MIC,"[11]; ATCC19606, Table 9, read-out: MIC A.baum AB110",2 µg/mL
same,MIC,"[12]; ATCC27853, Table 9, read-out: MIC P. aeruginosa ATCC 27853",> 32 µg/mL
same,MIC,"[13]; ATCC13047, Table 9, read-out: MIC Enterobacter cloaceae ATCC 13047",4 µg/mL
same,MIC,"[14]; ATCC13883, Table 9, read-out: MIC Klebsiella pneum ATCC 13883",2 µg/mL
same,MIC,"[15]; Table 9, read-out: MIC Klebsiella pneum KP153 (tet)A",32 µg/mL
same,MIC Range,[16],0.063-16
same,MIC Range,[17],0.063-8
same,MIC Range,[18],<=0.016-16
same,MIC,"[19]; read-out: MIC, TetK Induced",8 µg/mL
same,MIC,"[19]; read-out: MIC, Uninduced",2 µg/mL
same,"MIC ratio, TetK induced to uninduced",[19]; ratio of TetK induced to uninduced MIC,4
same,"MIC in the presence of tet(K) expression, fold higher than when tet(K) was not expressed",[19]; tet(K) expressed vs not expressed,4 fold
same,MIC,"[20]; Escherichia coli, read-out: MIC, Uninduced",4 µg/mL
same,Ratio (TetM induced / Uninduced),[20]; ratio of MICs,8
same,MIC Range,[21]; S. pneumoniae (n = 20),≦0.016-16 μg/ml
same,MIC50,[21]; Streptococcus pneumoniae,8 µg/mL
same,MIC90,[21]; Streptococcus pneumoniae,8 µg/mL
same,MIC Range,[22]; H. influenzae (n = 12),0.5 to 4 µg/mL
same,MIC50,[22]; Haemophilus influenzae,1 µg/mL
same,MIC90,[22]; Haemophilus influenzae,4 µg/mL
"CN(C)c1ccc(O)c2c1C[C@H]1C[C@H]3[C@H](N(C)C)C(O)=C(C(N)=O)C(=O)[C@@]3(O)C(O)=C1C2=O [Mino., Minocycline, reference compound]",MIC,"[1]; numeric values of control compounds, read-out: MIC SA101 29213",0.06 µg/mL
same,MIC,"[2]; numeric values of control compounds, read-out: MIC SA100 13709",0.06 µg/mL
same,MIC,"[3]; numeric values of control compounds, read-out: MIC SA161 MRSA, tetM",8 µg/mL
same,MIC,"[4]; numeric values of control compounds, read-out: MIC SA158 tetK",0.03 µg/mL
same,MIC,"[6]; numeric values of control compounds, read-out: MIC EF159 tetM",16 µg/mL
same,MIC,"[7]; ATCC49619, numeric values of control compounds, read-out: MIC SP106 49619",< 0.015 µg/mL
same,MIC,"[8]; numeric values of control compounds, read-out: MIC SP160 tetM",2 µg/mL
same,MIC,"[9]; ATCC25922, numeric values of control compounds, read-out: MIC EC107 25922",0.5 µg/mL
same,MIC,"[10]; numeric values of control compounds, read-out: MIC EC155 tetA",8 µg/mL
same,MIC,"[11]; ATCC19606, numeric values of control compounds, read-out: MIC AB110 19606",0.06 µg/mL
same,MIC,"[12]; ATCC27853, numeric values of control compounds, read-out: MIC PA111 27853",16 µg/mL
same,MIC,"[13]; ATCC13047, numeric values of control compounds, read-out: MIC EC108 13047",2 µg/mL
same,MIC,"[15]; numeric values of control compounds, read-out: MIC KP153 tetA",8 µg/mL
"CN(C)c1cc(NC(=O)CNC(C)(C)C)c(O)c2c1C[C@H]1C[C@H]3[C@H](N(C)C)C(O)=C(C(N)=O)C(=O)[C@@]3(O)C(O)=C1C2=O [Tige., Tigecycline, reference compound]",MIC,[1]; read-out: MIC SA101 29213,0.06 µg/mL
same,MIC,[2]; read-out: MIC SA100 13709,0.06 µg/mL
same,MIC,"[3]; read-out: MIC SA161 MRSA, tetM",0.125 µg/mL
same,MIC,[4]; read-out: MIC SA158 tetK,0.06 µg/mL
same,MIC,[5]; [24],0.03 µg/mL
same,MIC,[6]; read-out: MIC EF159 tetM,0.06 µg/mL
same,MIC,[7]; [25],0.0156 µg/mL
same,MIC,[8]; read-out: MIC SP160 tetM,0.0156 µg/mL
same,MIC,[9]; [26],0.03 µg/mL
same,MIC,[10]; read-out: MIC EC155 tetA,0.5 µg/mL
same,MIC,[11]; [27],0.25 µg/mL
same,MIC,[12]; [28],8 µg/mL
same,MIC,[13]; [29],0.25 µg/mL
same,MIC,[14]; [30],0.125 µg/mL
same,MIC,[15]; read-out: MIC KP153 tetA,1 µg/mL
same,TnT IC50,[23],0.3 µg/mL
"CN(C)[C@@H]1C(O)=C(C(N)=O)C(=O)[C@@]2(O)C(O)=C3C(=O)c4c(O)cccc4C[C@H]3C[C@@H]12 [San., Sancycline, reference compound]",MIC,[1]; read-out: MIC SA101 29213,0.5 µg/mL
same,MIC,[2]; read-out: MIC SA100 13709,1 µg/mL
same,MIC,[4]; read-out: MIC SA158 tetK,4 µg/mL
same,MIC,[5]; [24],8 µg/mL
same,MIC,[6]; read-out: MIC EF159 tetM,8 µg/mL
same,MIC,[7]; [25],0.25 µg/mL
same,MIC,[8]; read-out: MIC SP160 tetM,8 µg/mL
same,MIC,[9]; [26],8 µg/mL
same,MIC,[10]; read-out: MIC EC155 tetA,32 µg/mL
same,MIC,[11]; [27],0.25 µg/mL
same,MIC,[12]; [28],> 32 µg/mL
same,MIC,[13]; [29],8 µg/mL
same,MIC,[14]; [30],8 µg/mL
same,MIC,[15]; read-out: MIC KP153 tetA,32 µg/mL
